Assay results as given in patent US12053451B2, “Arginase inhibitors and their therapeutic applications” (OncoArendi Therapeutics S.A., priority 2016, dated 2024).
Counter-ions that a name gives are not always drawn.

How the values were obtained:
[1] = target: T1, intracellular arginase in macrophages isolated from murine bone marrow (BMDM) (Mus musculus, UniProt Q61176); experiment: Cell-based assay: intracellular arginase in bone marrow derived macrophages (BMDM), urea level; parameters: species or system Balb/c mice; settings: murine BMDM with M-CSF and IL-4, urea measured 24 hours after compound; * = most potent diastereoisomer or mixture of diastereoisomers; read-out: Activity Class (BMDM)
T1 construct: endogenous in cells; host or cells: primary bone marrow derived macrophages from Balb/c mice, M-CSF and IL-4 treated
T1 sequence (Q61176 1-323): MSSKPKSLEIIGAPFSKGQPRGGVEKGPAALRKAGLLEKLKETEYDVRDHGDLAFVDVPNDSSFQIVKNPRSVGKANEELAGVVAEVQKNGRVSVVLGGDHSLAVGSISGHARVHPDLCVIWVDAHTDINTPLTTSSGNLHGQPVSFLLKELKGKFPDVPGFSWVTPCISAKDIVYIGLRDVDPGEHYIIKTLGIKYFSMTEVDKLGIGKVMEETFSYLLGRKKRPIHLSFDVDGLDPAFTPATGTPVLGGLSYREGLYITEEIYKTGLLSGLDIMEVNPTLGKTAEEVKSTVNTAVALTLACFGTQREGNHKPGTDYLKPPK
Experimental: Efficacy of Selected Examples Towards Intracellular Arginase in Macrophages Isolated from Murine Bone Marrow—Bone Marrow Derived Macrophages (BMDM)
Materials & Methods: The assay was performed according to modified literature protocol modification (Pineda-Torra I et al., Methods Mol Biol. 2015; 1339:101-9. Mia S et al. Scand J Immunol. 2014 May; 79(5):305-14). The femurs and tibias were isolated from Balb/c mice. Bones were cleaned from all attached tissues by using sterile swab without affecting the bone structure. Bones were sterilized by immersion in 70% ethanol for 5 min and then rinsed in PBS. The sides of the bones were cut off and flush with cold sterile PBS by using 26-G needle S into a 50 mL sterile tube with a cell strainer (Falcon™, Cat. No. U00149), until bone cavity appeared white. Then the cells were centrifuged (5 min at 500×G, 4° C.), washed twice with PBS and counted. Cells were plated in Petri dish in density of 1×10^6/mL and cultured in DMEM (Gibco, Cat. No. 31331-029) with 10% FBS, 1% pen-strep and 50 ng/mL M-CSF (PeproTech, Cat. No. 315-02), (37° C., 5% CO2). After five days cells were subcultured into P96 plate (BD, Cat. No. 353072) in density of 64 000 cells/well in medium supplemented with 50 ng/mL M-CSF and 20 ng/mL IL-4 (Biomibo Cat. No. 214-1). One day later exemplary compounds (dissolved in PBS) were added in several different concentrations and 24 hours later the level of urea was measured in each well (Jung D et al., Clin Chem. 1975, 21(8):1136-40). The concentration of urea in the absence of any compound was considered as the maximum. The absorbance of cell culture media (background) was subtracted from all the values.
(§1) For selected examples the activity class for ARG2 was estimated based on % of inhibition for 1 μM and 100 μM concentration of tested compounds.

[2] = target: T2, recombinant human arginase 1 (Homo sapiens, UniProt P05089); experiment: Human arginase activity assay (urea measurement), arginase 1; type: biochemical; settings: recombinant human arginase 1, pH 7.4, 37° C., 60 min; * = value for the most potent diastereoisomer or the mixture of diastereoisomers; read-out: Activity Class (ARG I)
T2 construct: purchased Biolegend 552502
T2 sequence (P05089 1-322): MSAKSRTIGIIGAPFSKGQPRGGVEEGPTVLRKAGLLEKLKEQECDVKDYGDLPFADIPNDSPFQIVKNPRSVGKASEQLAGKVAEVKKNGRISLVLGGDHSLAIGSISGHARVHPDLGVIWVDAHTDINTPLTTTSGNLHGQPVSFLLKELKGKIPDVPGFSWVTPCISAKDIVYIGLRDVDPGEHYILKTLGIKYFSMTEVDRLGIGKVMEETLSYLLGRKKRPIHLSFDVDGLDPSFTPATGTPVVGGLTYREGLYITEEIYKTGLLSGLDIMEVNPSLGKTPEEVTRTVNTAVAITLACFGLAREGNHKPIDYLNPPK
How it was run: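 Arginase activity was measured as urea formed from L-arginine over 60 min at 37 °C. Reaction stopped with oPA/NED acidic reagent and absorbance read at 530 nm after 20 min colour development. Values were background-subtracted and normalised to no-compound activity, and IC50 was derived from percent-inhibition concentration-response regression.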

[3] = target: T3, recombinant human arginase 2 (Homo sapiens, UniProt P78540); experiment: Human arginase activity assay (urea measurement), arginase 2; type: biochemical; settings: for selected examples class estimated from % of inhibition at 1 μM and 100 μM, * = most potent diastereoisomer or mixture of diastereoisomers, read-out: Activity Class (ARG II)
T3 construct: made in house; host or cells: CHO
T3 sequence (P78540 23-354): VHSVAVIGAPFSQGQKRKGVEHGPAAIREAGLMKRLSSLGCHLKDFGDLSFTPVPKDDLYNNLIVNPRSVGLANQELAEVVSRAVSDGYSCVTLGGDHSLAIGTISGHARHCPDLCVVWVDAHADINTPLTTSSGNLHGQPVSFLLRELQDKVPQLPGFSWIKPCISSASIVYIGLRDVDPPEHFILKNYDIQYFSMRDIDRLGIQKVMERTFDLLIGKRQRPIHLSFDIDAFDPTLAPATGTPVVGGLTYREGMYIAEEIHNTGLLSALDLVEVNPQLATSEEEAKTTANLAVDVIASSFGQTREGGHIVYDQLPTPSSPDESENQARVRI
Experimental: Human Arginase Activity Assay
An enzymatic assay with recombinant human arginases 1 (Biolegend, Cat. No. 552502) and 2 (homemade in eukaryotic expression system of CHO, purified by FPLC) was used in order to assess inhibitory activity of the compounds. The assay was run in the 96-well plate format, each reaction in the total volume of 100 uL. The assay is based on urea measurement, which is a product of L-arginine enzymatic degradation. (Baggio et al. J Pharmacol. Exp. Ther. 1999, 290, 1409-1416). The color product is developed by adding a mixture of reagent A (4 mM oPA in 50 mM boric acid in 1M sulfuric acid, 0.03% Brij-35) and reagent B (4 mM NED in 50 mM boric acid in 1M sulfuric acid, 0.03% Brij-35) in equal proportions. The absorbance for each well was measured at 530 nm.
Briefly, to each well of a 96-well microtiter plate 40 μL of enzyme in the reaction assay buffer (pH 7.4, 100 mM sodium phosphate buffer, 130 mM NaCl, 1 mg/mL albumin), 50 μL of the test compound solution and 10 μL of enzyme substrate solution (L-arginine hydrochloride, natural pH 5.6, final concentration 20 mM and a cofactor—manganese chloride, final concentration 150 μM) was added. For positive control, only the enzyme and substrate were used, the negative controls contained substrate solution with assay buffer. After incubating the microtiter plate at 37° C. for 60 min 150 μL of mixed reagents A and B was added to each well to stop the reaction. Absorbance was measured (λ=530 nm) 20 minutes later, after color development. The urea production in the absence of any compound was considered the maximum arginase activity. The absorbance in the absence of arginase (background) was subtracted from all the values. The normalized OD was used to generate a concentration-response curve by plotting the percent of inhibition against log[concentration] of the compound and using regression analysis (GraphPad Prism 7.0) to compute the IC50 values.
as §1

| Compound | IC50 [1] [µM] | IC50 [2] [µM] | IC50 [3] [µM] |
| --- | --- | --- | --- |
| N[C@]1(C(=O)O)C[C@H](CCB(O)O)CC[C@H]1CN1CCCCC1 [Example 70, (1R,2S,5R)-1-amino-5-(2-boronoethyl)-2-(piperidin-1-ylmethyl)cyclohexane-1-carboxylic acid] | 0.001 to 0.1 | 0.001 to 0.1 | 0.1 to 1 |
| N[C@]1(C(=O)O)C[C@H](CCB(O)O)CC[C@H]1CN1CCc2ccccc2C1 (racemic) [Example 35, rac-(1R,2S,5R)-1-amino-5-(2-boronoethyl)-2-((3,4-dihydroisoquinolin-2(1H)-yl)methyl)cyclohexanecarboxylic acid dihydrochloride] | 10 to 100 | 0.1 to 1 | 1 to 10 |
| NCC1CCC(CCB(O)O)CC1(N)C(=O)O (stereo not drawn) [Example 24, 1-Amino-2-(aminomethyl)-5-(2-boronoethyl)cyclohexane-1-carboxylic acid] | 10 to 100 | 0.001 to 0.1 | 0.1 to 1 |
| CC1(C)[C@H]2C[C@@H]3OB(CC[C@@H]4CC[C@@H](CN5CCCC5)[C@@](N)(C(=O)O)C4)O[C@]3(C)[C@@H]1C2 [Example 45, (1R,2S,5R)-1-amino-2-(pyrrolidin-1-ylmethyl)-5-(2-((3aR,4R,6R,7aS)-3a,5,5-trimethylhexahydro-4,6-methanobenzo[d][1,3,2]dioxaborol-2-yl)ethyl)cyclohexanecarboxylic acid dihydrochloride] | 0.001 to 0.1 | 0.001 to 0.1 | 0.1 to 1 |
| N[C@@H](CCCCB(O)O)C(=O)O [Comparative example 1, reference compound] | 1 to 10 | 0.1 to 1 | 1 to 10 |
| CC1(O)CCC(CCB(O)O)CC1(N)C(=O)O (stereo not drawn) [Example 50, 1-amino-5-(2-boronoethyl)-2-hydroxy-2-methylcyclohexanecarboxylic acid hydrochloride] | 10 to 100 | 0.1 to 1 | 0.1 to 1 |
| N[C@]1(C(=O)O)C[C@H](CCB(O)O)CC[C@H]1CN1CCCC1 [Example 71, (1R,2S,5R)-1-amino-5-(2-boronoethyl)-2-(pyrrolidin-1-ylmethyl)cyclohexane-1-carboxylic acid] | 0.001 to 0.1 | 0.001 to 0.1 | 0.001 to 0.1 |
| N[C@@]1(C(=O)O)CCC[C@@H](CCB(O)O)C1 (racemic) [Example 10, rac-(1S,3R)-1-Amino-3-(2-boronoethyl)cyclohexane-1-carboxylic acid hydrochloride] | 10 to 100 | 1 to 10 | 1 to 10 |
| CCN(CC)C[C@@H]1CC[C@@H](CCB(O)O)C[C@]1(N)C(=O)O (racemic) [Example 30, rac-(1R,2S,5R)-1-amino-5-(2-boronoethyl)-2-((diethylamino)methyl)cyclohexanecarboxylic acid dihydrochloride] | 0.1 to 1 | 0.1 to 1 | 0.1 to 1 |
| N[C@@]1(C(=O)O)COC[C@@H](CCB(O)O)C1 (racemic) [Example 61, rac-(3R,5S)-3-amino-5-(2-boronoethyl)tetrahydro-2H-pyran-3-carboxylic acid hydrochloride] | 1 to 10 | 0.1 to 1 | 1 to 10 |
| CNC[C@@H]1CC[C@@H](CCB(O)O)C[C@]1(N)C(=O)O [Example 39, (1R,2S,5R)-1-amino-5-(2-boronoethyl)-2-((methylamino)methyl)cyclohexanecarboxylic acid dihydrochloride] | 0.1 to 1 | 0.001 to 0.1 | 0.001 to 0.1 |
| CCN(C)C[C@@H]1CC[C@@H](CCB(O)O)C[C@]1(N)C(=O)O [Example 69, (1R,2S,5R)-1-amino-5-(2-boronoethyl)-2-((ethyl(methyl)amino)methyl)cyclohexane-1-carboxylic acid] | 0.1 to 1 | 0.001 to 0.1 | 0.001 to 0.1 |
| NC1(C(=O)O)CC(CCB(O)O)CC=C1Cc1ccc(Cl)cc1 (stereo not drawn) [Example 53, 1-amino-5-(2-boronoethyl)-2-(4-chlorobenzyl)cyclohex-2-enecarboxylic acid hydrochloride] | 1 to 10 | 0.1 to 1 | 1 to 10 |
| NC[C@@H]1C[C@@H](CCB(O)O)CC(N)(C(=O)O)C1 (mixture of isomers) [Example 54, rac-(3R,5R)-1-amino-3-(aminomethyl)-5-(2-boronoethyl)cyclohexanecarboxylic acid dihydrochloride] | 10 to 100 | 0.1 to 1 | 1 to 10 |
| CNC1(C(=O)O)C[C@H](CCB(O)O)CCC1CN (single isomer, unassigned) [Example 68, dihydrochloride] | 10 to 100 | 10 to 100 | 10 to 100 |
| NC(CCCCB(O)O)(CCNCCCc1ccc(Cl)cc1Cl)C(=O)O (stereo not drawn) [Comparative example 2, reference compound] | 1 to 10 | 0.001 to 0.1 | 0.1 to 1 |
| CN(C)C1CC(CCB(O)O)CC(N)(C(=O)O)C1 (stereo not drawn) [Example 65, 1-amino-3-(2-boronoethyl)-5-(dimethylamino)cyclohexane-1-carboxylic acid dihydrochloride] | > 100 | 10 to 100 | 10 to 100 |
| CN(C)C[C@@H]1CC[C@@H](CCB(O)O)C[C@]1(N)C(=O)O [Example 38, (1R,2S,5R)-1-amino-5-(2-boronoethyl)-2-((dimethylamino)methyl)cyclohexanecarboxylic acid] | 0.001 to 0.1 | 0.001 to 0.1 | 0.001 to 0.1 |
